# Laboratory results: ChEMBL document CHEMBL3600293, “Design, synthesis and evaluation of MCH receptor 1 antagonists--Part I: Optimization of HTS hits towards an in vivo efficacious tool compound BI 414” (Bioorg Med Chem Lett, 2015)
# Tests used:
# [1] = in vitro; conditions: human, liver microsomes
# Description: Half life in human liver microsomes
# [2] = in vitro; conditions: rat, liver microsomes
# Description: Half life in rat liver microsomes
smiles,measurement,setting,value
NC(=O)C1CCN(CCOc2ccc(C#Cc3ccc(-c4ccc(Cl)cc4)cn3)cc2)CC1,half-life,[1],> 90 min
same,half-life,[2],21 min
